Laboratory results from patent publication US20040023972A1, “Use of substituted imidazo[1,2-a]-pyridin-, -pyrimidin-and-pyrazin-3-yl-amine derivatives in the preparation of medicaments for inhibiting NOS” (Gruenenthal GmbH, priority 2000, published 2004).

The compounds below were run against T1, NO synthase (Rattus norvegicus, UniProt P29476) (assay: HTS-NOS assay (NOS assay): conversion of radioactive arginine, cation-exchanger filter plate). Details: 10 μM.
T1 construct: the supernatant was then removed by decantation and frozen in portions at −80° C; from tissue; host or cells: rat cerebellum, 20,000 g supernatant of homogenate
Type: biochemical
Description: This assay enables the percentage inhibition of NO synthase by an active ingredient to be determined by measuring the NOS activity under the action of the active ingredient. NO synthase is mixed together with radioactively labelled arginine and the active ingredient under suitable conditions. After terminating the NO-forming reaction at a given time, the amount of unconverted arginine is determined directly or indirectly. A comparison of that amount with the amount of arginine that remains in a mixture of NOS and arginine without the addition of active ingredient and under otherwise identical conditions gives the % inhibition of NO synthase by the tested active ingredient. This assay can be carried out as follows:
(a) incubation of NO synthase with labelled arginine as substrate in a reaction vessel,
(b) separation of the labelled arginine from the labelled citrulline optionally formed as a product of the enzymatic reaction, at a time at which the citrulline concentration is increasing,
(c) measurement of the amount of arginine remaining in each case.
Separation is carried out over a filter plate membrane.
This NOS assay is suitable especially for “high throughput screening” (HTS) on microtitre plates (MTP).
In this HTS-NOS assay, radioactive arginine is used as substrate. The assay volume can be chosen in the range from 25 μl to 250 μl, according to the type of microtitre plate (MTP). Depending on the source of the enzyme used, co-factors and co-enzymes are added. Incubation of the batches on this microtitre plate (assay MTP) according to step (a) is carried out at room temperature and is for 5 to 60 minutes according to the enzyme activity used (units). At the end of the incubation (step (a)), the plate is placed into a cell harvester which is equipped with a MTP having a cation-exchanger membrane as the filter base (filter MTP). All batches of the assay MTP are transferred to the filter MTP and filtered off with suction over a cation-exchanger filter plate, a paper filter charged with phosphate groups. The filter MTP is then washed with buffer or water. By means of this procedure, the arginine substrate that remains is bound to the cation exchanger, while the enzymatically formed radioactive citrulline is washed out quantitatively. After drying the filter MTP and adding scintillation liquid, the bound arginine can be counted using a scintillation counter. An uninhibited NOS reaction is reflected in low radioactivity. An inhibited enzyme reaction means that the radioactive arginine has not been converted. This means that a high level of radioactivity is found on the filter.
Rat cerebella were used as the starting tissue. The animals were anaesthetized and sacrificed, the brain tissue, the cerebellum, was removed by dissection, 1 ml of enzyme preparation buffer was added per rat cerebellum (4° C.), and disintegration was carried out using a Polytron homogeniser for 1 minute at 6000 rpm, followed by centrifugation for 15 minutes at 4° C. and 20,000 g; the supernatant was then removed by decantation and frozen in portions at −80° C. (the precipitate was discarded).
96-well MTP having a well capacity of <250 μl were used.
Pipetting sequence: see Table 1.
When the pipetting operation was complete, a cover was placed on the MTP (assay MTP), and incubation was at 25° C. (room temperature (RT)) for from 5 to 60 minutes, according to the amount and activity of the enzyme used.
The contents of the assay MTP were then transferred with the aid of a 96-well cell harvester to a 96-well cation exchanger MTP (filter MTP) and filtered off with suction. This was followed by washing once with […] of H2O (from a bath).
The plate was then dried for 1 hour at 60° C. in a drying cabinet. The underside of the filter MTP was then accurately sealed from beneath with a “back seal”. 35 μl of scintillation fluid per well were then added by means of a pipette. The upper side of the plate was also sealed with a “top seal”. […]
For C#[N+]CCCCCCNc1c(-c2cccc3ccccc23)nc2cc(C)cc(C)n12 [Example 128, [6-(5,7-Dimethyl-2-naphthalen-1-yl-imidazo[1,2-a]pyridin-3-ylamino)-hexyl]-methylidyne-ammonium], the “HTS-NOS assay: % inhibition (10 μM)” value was 63%.
In the case of [C-]#[N+]CCCCCCN(C(C)=O)c1c(-c2ccco2)nc2cc(C)cc(C)n12 [Example 159, {6-[acetyl-(2-furan-2-yl-5,7-dimethyl-imidazo[1,2-a]pyridin-3-yl)-amino]-hexyl}-methylidyne-ammonium], the “HTS-NOS assay: % inhibition (10 μM)” value is reported as 61%.
In the case of CC(=O)OCc1ccc(-c2nc3cc(C)cc(C)n3c2N(C(C)=O)C2CCCCC2)o1 [Example 158, acetic acid 5-[3-(acetyl-cyclohexyl-amino)-5,7-dimethyl-imidazo[1,2-a]pyridin-2-yl]-furan-2-yl methyl ester], the “HTS-NOS assay: % inhibition (10 μM)” value is reported as 54%.

Same assay, conditions: Table 5; concentration not given
Cc1cc(C)n2c(NC3CCCC3)c(-c3ccc(-c4ccc(Cl)cc4)o3)nc2c1.Cl [Example 306, {2-[5-(4-Chlorophenyl)-furan-2-yl]-5,7-dimethyl-imidazo[1,2-a]pyridin-3-yl}-cyclopentyl-amine hydrochloride] was tested, and the “NOS assay % inhibition” value was 73%.

Same assay, conditions: Table 5; concentration not given; hydrochloride
For Cc1cc(C)n2c(NC3CCCCC3)c(-c3ccoc3)nc2c1.Cl [Example 302, Cyclohexyl-(2-furan-3-yl-5,7-dimethyl-imidazo-[1,2-a]pyridin-3-yl)-amine hydrochloride], the “NOS assay % inhibition” value was 54%.

Same assay, conditions: read-out: HTS-NOS assay: % inhibition (10 μM)
Cc1ccn2c(NC(C)(C)C)c(-c3ccc(C(=O)O)s3)nc2c1 [Example 110, 5-(3-Tert-butylamino-7-methyl-imidazo[1,2-a]pyridin-2-yl)-thiophene-2-carboxylic acid] was tested, and the inhibition at 10 µM was 61%.
For CC(=O)N(c1c(-c2cccnc2)nc2cc(C)cc(C)n12)C(C)(C)CC(C)(C)C [Example 147, N-(5,7-dimethyl-2-pyridin-3-yl-imidazo[1,2-a]pyridin-3-yl)-N-(1,1,3,3-tetramethyl-butyl)-acetamide], the inhibition at 10 µM was 68%.
CC(=O)N(c1c(-c2ccco2)nc2c(C(=O)O)cccn12)C(C)(C)CC(C)(C)C [Example 267, 3-[acetyl-(1,1,3,3-tetramethyl-butyl)-amino]-2-furan-2-yl-imidazo[1,2-a]pyridine-8-carboxylic acid] was tested, and the inhibition at 10 µM was 62%.
In the case of CC(=O)N(c1c(-c2cc(C)c(C)o2)nc2ccc(C)cn12)C(C)(C)C [Example 268, N-tert-butyl-N-[2-(4,5-dimethyl-furan-2-yl)-6-methyl-imidazo[1,2-a]pyridin-3-yl]-acetamide], the inhibition at 10 µM is reported as 51%.
In the case of Cc1ccn2c(NC(C)(C)C)c(-c3cccnc3)nc2c1 [Example 1, Tert-butyl-(7-methyl-2-pyridin-3-yl-imidazo[1,2-a]pyridin-3-yl)-amine], the inhibition at 10 µM is reported as 63%.
Compound CSc1ccc(-c2nc3cnccn3c2N(C(C)=O)C(C)(C)C)s1 [Example 233, N-tert-butyl-N-[2-(5-methylsulfanyl-thiophen-2-yl)-imidazo[1,2-a]pyrazin-3-yl]-acetamide] has an inhibition at 10 µM of 53%.
COc1ccccc1-c1nc2cc(C)cc(C)n2c1NC(C)(C)CC(C)(C)C [Example 53, [2-(2-Methoxy-phenyl)-5,7-dimethyl-imidazo[1,2-a]pyridin-3-yl]-(1,1,3,3-tetramethyl-butyl)-amine] was tested, and the inhibition at 10 µM was 61%.
In the case of CC(=O)N(c1c(-c2cc(C)c(C)o2)nc2ccccn12)C(C)(C)CC(C)(C)C [Example 202, N-[2-(4,5-dimethyl-furan-2-yl)-imidazo[1,2-a]pyridin-3-yl]-N-(1,1,3,3-tetramethyl-butyl)-acetamide], the inhibition at 10 µM is reported as 57%.
CC(=O)N(c1c(-c2ccc(C(=O)O)o2)nc2cc(C)cc(C)n12)C1CCCCC1 [Example 197, 5-[3-(acetyl-cyclohexyl-amino)-5,7-dimethyl-imidazo[1,2-a]pyridin-2-yl]-furan-2-carboxylic acid] showed an inhibition at 10 µM of 70%.
Cc1cc(C)n2c(NC3CCCCC3)c(-c3ccc([N+](=O)[O-])o3)nc2c1 [Example 104, Cyclohexyl-[5,7-dimethyl-2-(5-nitro-furan-2-yl)-imidazo[1,2-a]pyridin-3-yl]-amine] gave an inhibition at 10 µM of 63%.
CCCCNc1c(-c2cccc(OC)c2OC)nc2cc(C)cc(C)n12 [Example 49, Butyl-[2-(2,3-dimethoxy-phenyl)-5,7-dimethyl-imidazo[1,2-a]pyridin-3-yl]-amine] showed an inhibition at 10 µM of 67%.
Compound CC(=O)N(c1c(-c2ccco2)nc2cc(C)ccn12)C(C)(C)CC(C)(C)C [Example 149, N-(2-furan-2-yl-7-methyl-imidazo[1,2-a]pyridin-3-yl)-N-(1,1,3,3-tetramethylbutyl)-acetamide] has an inhibition at 10 µM of 55%.
With CC(=O)N(c1c(C)cccc1C)c1c(-c2cccc(O)c2)nc2cc(C)cc(C)n12 [Example 211, N-(2,6-dimethyl-phenyl)-N-[2-(3-hydroxy-phenyl)-5,7-dimethyl-imidazo[1,2-a]-pyridin-3-yl]-acetamide] the inhibition at 10 µM was 73%.
Work on CC(=O)N(c1c(C)cccc1C)c1c(-c2cc3ccccc3o2)nc2cc(C)ccn12 [Example 239, N-(2-benzofuran-2-yl-7-methyl-imidazo[1,2-a]pyridin-3-yl)-N-(2,6-dimethylphenyl)-acetamide] yielded an inhibition at 10 µM of 52%.
With Cc1ccc2nc(-c3cccc(Cl)c3Cl)c(NC(C)(C)CC(C)(C)C)n2c1 [Example 112, [2-(2,3-Dichloro-phenyl)-6-methyl-imidazo[1,2-a]pyridin-3-yl]-(1,1,3,3-tetramethyl-butyl)-amine] the inhibition at 10 µM was 52%.
Work on Cc1ccc2nc(-c3cccnc3)c(NC(C)(C)C)n2c1 [Example 125, Tert-butyl-(6-methyl-2-pyridin-3-yl-imidazo[1,2-a]pyridin-3-yl)-amine] yielded an inhibition at 10 µM of 51%.
CC(=O)N(c1c(-c2cc(C)c(C)o2)nc2cccc(C)n12)C(C)(C)CC(C)(C)C [Example 222, N-[2-(4,5-dimethyl-furan-2-yl)-5-methyl-imidazo[1,2-a]pyridin-3-yl]-N-(1,1,3,3-tetramethyl-butyl)-acetamide] showed an inhibition at 10 µM of 53%.
For Cc1cccn2c(NC(C)(C)C)c(-c3ccccn3)nc12 [Example 120, Tert-butyl-(8-methyl-2-pyridin-2-yl-imidazo[1,2-a]pyridin-3-yl)-amine], the inhibition at 10 µM was 56%.
CCc1ccn2c(NCc3ccccc3OC)c(-c3ccc([N+](=O)[O-])o3)nc2c1 [Example 313, [7-Ethyl-2-(5-nitro-furan-2-yl)-imidazo[1,2-a]pyridin-3-yl]-(2-methoxy-benzyl)-amine] was tested, and the inhibition at 10 µM was 32%.
With Cc1cc(C)n2c(NC3CCCCC3)c(C)nc2c1 [Example 35, Cyclohexyl-(2,5,7-trimethyl-imidazo[1,2-a]-pyridin-3-yl)-amine] the inhibition at 10 µM was 55%.
Compound Cc1ccn2c(NC3CCCCC3)c(-c3cccc4ccccc34)nc2c1 [Example 16, Cyclohexyl-(7-methyl-2-naphthalen-1-yl-imidazo[1,2-a]pyridin-3-yl)-amine] has an inhibition at 10 µM of 56%.
CC(=O)N(c1c(-c2ccc(C(=O)O)o2)nc2ccc(C)cn12)C(C)(C)CC(C)(C)C [Example 282, 5-{3-[acetyl-(1,1,3,3-tetramethyl-butyl)-amino]-6-methyl-imidazo[1,2-a]pyridin-2-yl}-furan-2-carboxylic acid] was tested, and the inhibition at 10 µM was 51%.
For CC(=O)N(c1c(-c2cccnc2)nc2cc(C)ccn12)C(C)(C)C [Example 144, N-tert-butyl-N-(7-methyl-2-pyridin-3-yl-imidazo[1,2-a]pyridin-3-yl)-acetamide], the inhibition at 10 µM was 59%.
For CCCCN(C(C)=O)c1c(-c2cccc(Cl)c2Cl)nc2ncccn12 [Example 255, N-butyl-N-[2-(2,3-dichloro-phenyl)-imidazo[1,2-a]pyrimidin-3-yl]-acetamide], the inhibition at 10 µM was 65%.
